Where no end group is shown, it is not given here.
What was measured:
human MC-4R = biological target: T1, human MC-4R (Homo sapiens, UniProt P32245); test: Biological Assay: inhibition of AgRP functional interaction with MC-4R in presence of αMSH (cAMP production); type: cell-based; settings: HEK293 cells expressing human MC-4R, AgRP83-132 and αMSH present; read-out: Average EC50 (nM) in Biological Assay
T1 construct: expressed in transfected cells
Outline: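 HEK293 cells stably expressing human MC-4R (20,000/well) in EBSS/HEPES pH 7.4 with 0.5 mM IBMX. Compounds preincubated 30 min at room temperature with human AgRP83-132, then cells added and stimulated with αMSH 30 min at 37 °C. Intracellular cAMP measured after lysis; inhibition of AgRP seen as increased cAMP.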

[1] = rat, in vivo, po, 5 mg/kg; for Plasma:Brain Ratio: male, Sprague Dawley, 2 h
Procedure: (§2) Pharmacokinetic screening in rats was performed on various compounds to measure brain to plasma ratio at 2 hour time point. […] The parameters for the pharmacokinetic protocol were as follows.
Amount of compound: 5 mg/kg
(§3) Species: Rat; Strain: Sprague Dawley; Sex: Male
Diet Status: Overnight fasting
(§4) Number of Animals (n) for each time point: 2
(§5) Formulation: 0.1% CMC, 0.25% Tween 80 in distilled water
(§6) Each formulation was administered once by oral gavage using a gavage needle (18G-3, BrainTree Scientific, INC, USA) attached to a syringe. The dose volume was 5 mL/kg for all animals. The actual volume administered to each animal was calculated and adjusted based on the most recent body weight.
(§7) Blood samples (approximately 300 μL whole blood) was collected from each animal via tail vein except for terminal blood samples. Terminal blood samples were collected via cardiac puncture. All samples were collected into tubes containing lithium heparin (Multivette 600 LH-Gel, Sarstedt, Newton, N.C., USA). Following collection, the tubes were placed in refrigerator (maximum 30 minutes) or until centrifugation under refrigeration (at 2 to 8° C.) at 5000 g for 7 minutes. Each harvested plasma sample was then transferred into 1.2 mL polypropylene tubes, on the 96-Well Plate according to the 96-Well Plate plasma sample map and kept in freezer. Plasma samples were then analyzed for test substances.
(§8) Brain samples were collected immediately after the rats were euthanised at designated time points. Brain samples were rinsed with saline, blotted dry, and weighed. Brain samples were placed into individual containers and kept in freezer (−20° C.). Brain samples were then analyzed for test articles.
(§9) After analysis, all the plasma results were reported as ng/mL and brain sample results are reported as ng/g.

in vivo = settings: male, Sprague Dawley, rat, po, 5 mg/kg
Procedure: as §2
Amount of compound: 5 mg/kg
as §3
Diet Status: Overnight fasting
as §4, §5, §6, §7, §8, §9

[2] = Stability in Liver Microsomes (human); type: in vitro ADME; settings: 1 μM, 0.5 mg protein/mL, NADPH, 60 minutes, 37° C., pH 7.4
Procedure: (§1) Various compounds were tested for their stability in human, monkey, dog, rat, and mouse liver microsomes. At a final concentration of 1 μM, compounds were incubated with either human, monkey, dog, rat, or mouse liver microsomes (0.5 mg protein/mL) in the presence of an NADPH-solution for 60 minutes at 37° C., pH 7.4 in phosphate buffer. Incubations were performed in duplicate. Reactions were terminated by the addition of methanol. The incubation solution was vortexed and transferred into a 96-well plate. The plate was sealed and centrifuged at approximately 3500 rpm for approximately 10 minutes. After centrifugation, the plate was loaded into 96-well plate autosampler and analyzed by LC/MS. Values are reported as percent of compound remaining after 1 hour.

[3] = Stability in Liver Microsomes (monkey); type: in vitro ADME; settings: 1 μM, 0.5 mg protein/mL, NADPH, 60 minutes, 37° C., pH 7.4
Procedure: as §1

[4] = Stability in Liver Microsomes (dog); type: in vitro ADME; settings: 1 μM, 0.5 mg protein/mL, NADPH, 60 minutes, 37° C., pH 7.4
Procedure: as §1

[5] = Stability in Liver Microsomes (rat); type: in vitro ADME; settings: 1 μM, 0.5 mg protein/mL, NADPH, 60 minutes, 37° C., pH 7.4
Procedure: as §1

[6] = Stability in Liver Microsomes (mouse); type: in vitro ADME; settings: 1 μM, 0.5 mg protein/mL, NADPH, 60 minutes, 37° C., pH 7.4
Procedure: as §1

[7] = test system: adult male Sprague Dawley rats; test: Feeding Study (icv AgRP, food intake and body weight); type: in vivo, Rat
Procedure: 27 adult male Sprague Dawley rats (Charles River Laboratories) were implanted with right lateral cerebral ventricular cannulas and allowed to recover for one week. After one week, animals were then randomized into 4 groups that were matched for food intake and body weight: water gavage-icv saline (n=6); Example 7 gavage-icv saline (n=7); water gavage-icv AgRP (n=7); Example 7 gavage-icv AgRP (n=7). Water or Example 7 (30 mg/kg) was administered at by oral gavage followed by icv injection of either saline or 0.2 nmol human AgRP 83-132. AgRP stimulated food intake and body weight gain over the next 24 h compared to saline controls. Both of these effects of AgRP were blocked by injection administration of Example 7.
On day 2 a second dose of Example 7 (30 mg/kg) or water was administered by oral gavage. On day 3, water or Example 7 (30 mg/kg) was administered for the third and final time by oral gavage followed by icv injection of either saline or 0.2 nmol human AgRP83-132. Food intake and body weight were monitored daily and animals were sacrificed on day 5.

OVX rats = test: Sexual Behavior, sub-chronic regimen in OVX rats; type: in vivo, Rat; settings: 30 mg/kg/day PO, 5 days
Procedure: Rats were ovariectomized (OVX) under ketamine/xylazine anesthesia with 8 rats per group. OVX rats were then administered estradiol benzoate (10 micrograms) 48 hours and progesterone (500 micrograms) 4 hours before five baseline tests of sexual behavior with sexually vigorous stud males. Tests were 30 minutes in duration and were conducted at 4-day intervals. All females developed normal rates of appetitive and consummatory sexual behavior. Following this baseline test phase, females were switched to an estrogen-alone baseline phase, during which they were administered estradiol benzoate (10 micrograms) 48 hours before tests of sexual behavior with sexually vigorous males. These tests were conducted at 14-day intervals, to assure low rates of appetitive responding (e.g., solicitations, hops and darts). After the second test, females were assigned randomly to 4 groups, a saline control, two doses of Example 7 antagonist (10 and 30 mg/kg, PO), and a positive control using melanotan II (MT-II) (1 mg/kg, SC). The saline control and Example 7 were gavaged daily for 5 days prior to the test. The MT-II control was injected acutely 5 min prior to the test. The test was recorded on video and scored by a technician blind to which drug the animals were receiving. Behaviors were subjected to one-way ANOVAs. For each significant effect, posthoc tests were conducted on the means using the Tukey method, P<0.05.

[8] = Pharmacokinetic screening in rats (plasma and brain); settings: rat, 5 mg/kg PO
Procedure: as §2
Amount of compound: 5 mg/kg
as §3
Diet Status: Overnight fasting
as §4, §5, §6, §7, §8, §9

[9] = 0.2 nmol icv, water gavage, next 24 h
[10] = 30 mg/kg oral gavage + icv saline compared to water + icv saline
[11] = 30 mg/kg oral gavage, icv 0.2 nmol human AgRP 83-132, 24 h

T1 sequence (P32245 whole entry): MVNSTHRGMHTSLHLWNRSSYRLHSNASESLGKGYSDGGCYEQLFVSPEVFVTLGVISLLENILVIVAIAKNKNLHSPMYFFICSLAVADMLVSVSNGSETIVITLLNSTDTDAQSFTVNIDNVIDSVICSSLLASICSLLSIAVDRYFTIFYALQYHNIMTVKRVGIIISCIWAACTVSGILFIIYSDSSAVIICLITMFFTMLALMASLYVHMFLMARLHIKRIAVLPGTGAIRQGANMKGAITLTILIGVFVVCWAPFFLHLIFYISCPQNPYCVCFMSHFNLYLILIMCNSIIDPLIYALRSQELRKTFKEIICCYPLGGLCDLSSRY

| Compound | EC50 (human MC-4R) | Plasma:Brain Ratio [1] | concentration at 2 h (in vivo; Brain - 2 hours (ng/g)) | concentration at 2 h (in vivo; Plasma - 2 hours (ng/mL)) | Stability in Liver Microsomes (% remaining after 1 hour incubation) Human [2] | Stability in Liver Microsomes (% remaining after 1 hour incubation) Monkey [3] | Stability in Liver Microsomes (% remaining after 1 hour incubation) Dog [4] | Stability in Liver Microsomes (% remaining after 1 hour incubation) Rat [5] | Stability in Liver Microsomes (% remaining after 1 hour incubation) Mouse [6] | other results |
| --- | --- | --- | --- | --- | --- | --- | --- | --- | --- | --- |
| Cc1ccc(CN(CCC(=O)[O-])c2nc(C3(C)CCC(C)CC3)cs2)s1.[Na+] (centres unmarked) [Example 46, Sodium; 3-[[4-(1,4-dimethyl-cyclohexyl)-thiazol-2-yl]-(5-methyl-thiophen-2-ylmethyl)-amino]-propionate] | 76 nM | 1.9:1 | 536 ng/g | 1040 ng/mL | – | – | – | – | – | – |
| CCc1ccc(CN(CCC(=O)[O-])c2nc(C3CCC(c4ccccc4)CC3)cs2)s1.[Na+] (centres unmarked) [Example 39, Sodium; 3-{(5-ethyl-thiophen-2-ylmethyl)-[4-(4-phenyl-cyclohexyl)-thiazol-2-yl]-amino}-propionate] | 275 nM | 4.0:1 | 1910 ng/g | 7620 ng/mL | – | – | – | – | – | – |
| CCc1ccc(CN(CCC(=O)[O-])c2nc(C3CCC(C)CC3)cs2)s1.[Na+] (centres unmarked) [Example 5, Sodium; 3-{(5-ethyl-thiophen-2-ylmethyl)-[4-(4-methyl-cyclohexyl)-thiazol-2-yl]-amino}-propionate] | 241 nM | 2.6:1 | 1460 ng/g | 3780 ng/mL | – | – | – | – | – | – |
| CCc1ccc(CN(CCC(=O)[O-])c2nc([C@H]3CC[C@H](C(C)(C)C)CC3)cs2)s1.[Na+] [Example 8, Sodium; 3-[[4-(trans-4-tert-butyl-cyclohexyl)-thiazol-2-yl]-(5-ethyl-thiophen-2-ylmethyl)-amino]-propionate] | 210 nM | 3.3:1 | 1580 ng/g | 5160 ng/mL | 93% | 84% | 91% | 88% | 88% | – |
| Cc1ccc(CN(CCC(=O)[O-])c2nc([C@H]3CC[C@H](C(C)C)CC3)cs2)s1.[Na+] [Example 9, Sodium; 3-[[4-(4-trans-isopropyl-cyclohexyl)-thiazol-2-yl]-(5-methyl-thiophen-2-ylmethyl)-amino]-propionate] | 274 nM | – | – | – | 82% | 74% | 92% | 66% | 69% | Plasma - 2 hours [1]: 3062 ng/mL |
| AgRP: AgRP83-132 (human, Phoenix Pharma, cat no. 003-53), Agouti related protein fragment given icv (SSRRCVRLHESCLGQQVPCCDPCATCYCRFFNAFCYCRKLGTAMNPCSRT; ends and bridges not checked; cysteine pairing not given here; UniProt O00253 83-132, looked up, fragment) [reference compound] | – | – | – | – | – | – | – | – | – | cumulative weight gain over the entire period, icv AGRP + H2O ([7]; 0.2 nmol icv days 1 and 3, water gavage, to day 5): above 30 grams; body weight gain after icv AgRP compared to saline controls [7, 9]: stimulated; food intake after icv AgRP compared to saline controls [7, 9]: stimulated |
| Cc1ccc(CN(CCC(=O)[O-])c2nc([C@H]3CC[C@H](C(C)(C)C)CC3)cs2)s1.[Na+] [Example 7, Sodium; 3-[[4-(trans-4-tert-butyl-cyclohexyl)-thiazol-2-yl]-(5-methyl-thiophen-2-ylmethyl)-amino]-propionate] | 159 nM | – | – | – | 78% | 67% | 66% | 57% | 68% | increase of mean frequency of high-intensity lordosis postures, factor relative to saline (OVX rats): 3.5; increase of mean number of solicitations, factor relative to saline (OVX rats): 6; increase of mean frequency of high-intensity lordosis postures, factor relative to MT-II (OVX rats; MT-II 1 mg/kg SC): 3.2; increase of mean number of solicitations, factor relative to MT-II (OVX rats; MT-II 1 mg/kg SC): 2; effect on food intake, icv saline [7, 10]: no significant effect; effect on weight gain, icv saline [7, 10]: no significant effect; cumulative weight gain over the entire period, Example 7 + icv AgRP ([7]; 30 mg/kg oral gavage days 1, 2, 3, icv AgRP days 1 and 3, to day 5): less than 15 grams; effect on AgRP stimulated body weight gain [7, 11]: blocked; effect on AgRP stimulated food intake [7, 11]: blocked; concentration at 2 h ([8]; male, Sprague Dawley, plasma, po, 5 mg/kg, Plasma - 2 hours (ng/mL), 2 hour time point): 6460 ng/mL; Brain - 24 hours AUC (h * ng/g) ([8]; 24 hour study): ++++ (values above 20,000 h*ng/g) |
| C[C@H]1CC[C@H](Oc2ccc(-c3csc(N(CCC(=O)[O-])Cc4cccs4)n3)cc2)CC1.[Na+] [Reference Compound C, Sodium 3-({4-[4-(trans-4-methyl-cyclohexyloxy)-phenyl]-thiazol-2-yl}-thiophen-2-ylmethyl-amino)-propionate, reference compound] | – | 2.0:1 | 1240 ng/g | 2460 ng/mL | – | – | – | – | – | – |
| O=C([O-])CCN(Cc1cccs1)c1nc(-c2ccc(-c3ccccc3)cc2)cs1.[Na+] [Reference Compound B, Sodium 3-[(4-biphenyl-4-yl-thiazol-2-yl)-thiophen-2-ylmethylamino]-propionate, reference compound] | – | 1.5:1 | 2110 ng/g | 3080 ng/mL | 82% | 64% | 95% | 91% | 99% | – |

Source: patent publication US8563742B2, “Substituted aminothiazole derivatives, pharmaceutical compositions, and methods of use” (High Point Pharmaceuticals, LLC, priority 2008, dated 2013)
